Data on 14 compounds can be found in patent US9023809B2, “Phenylalanine dipeptide derivatives, compositions and use thereof” (The Key Laboratory of Chemistry For Natural Products of …, priority 2008, dated 2015).

Converted amounts (≈) assume the structure as drawn. Like-named read-outs stand apart in the source and are kept apart here. Marks after values point to notes of the source that are not given here. Where a SMILES comes first, the peptide text is derived from it. [ ]: non-standard residue; d: D form. The star is where a group is joined. Phe(4-NO2) = N[C@@H](Cc1ccc([N+](=O)[O-])cc1)C(=O)O; Phe(4-NH2) = Nc1ccc(C[C@H](N)C(=O)O)cc1; 4Abz = Nc1ccc(C(=O)O)cc1; Propionyl = CCC(=O)*; Bz = O=C(c1ccccc1)*

One data set deals with 2.2.15 cells. The experiment in a line: Cytotoxicity (TC50, median toxic concentration) in 2.2.15 cells. In kind it is cell-based. Here is the method:
(§1) Cell control wells were simultaneously set up. […] IC50 and SI were calculated, respectively.

The subject of a further data set is HBV DNA replication. The experiment in a line: In vitro anti-HBV: inhibition of HBV DNA replication in 2.2.15 cells (dot blot). In kind it is cell-based, hepatitis B virus. The settings on record: day 8, dot blot; for IC50: Hepatitis B virus, 192 h. As for the experimental part:
as §1

For a further data set, the system named is DHBV-DNA. The experiment in a line: In vivo inhibition of DHBV-DNA in DHBV-infected ducklings. The following applies: intraperitoneal daily. From the text: Test compounds: the compound prepared in Example 75
Test method: One-day-old ducklings were infected with serum containing DHBV positive virus (about 10^8-9 virions/ml). After a week, blood was collected and tested. The successfully transfected ducklings were randomly divided into three to five groups. Blank group, positive control group and treatment group(s) (one to three groups) were subjected to treatment tests. The treatment groups were divided into high, median and low dose groups. Intraperitoneal injection was carried out daily for ten days. Physiological saline was used to replace drugs in the blank group. Lamivudine was administered in the positive control group. […] Serum was separated and kept at −70° C. for tests. Duck hepatitis B virus surface antigen (DHBsAg) was assayed with DHBsAg dot molecular hybridization (DOT EIA). Duck hepatitis B virus deoxyribonucleic acid (DHBV DNA) contents in serum and duck livers were assayed with dot blot hybridization.

The subject of another data set is HBsAg. The experiment in a line: In vitro anti-HBV: inhibition of HBsAg secretion in 2.2.15 cell supernatant (RIA). The format is cell-based, hepatitis B virus. The following applies: for IC50: Hepatitis B virus, 192 h, read-out: Inhibition of HBsAg IC50. As for the experimental part: Test Principle: • 2.2.15 cells were used as a vector of hepatitis B virus. Samples were assayed for their abilities to inhibit […] to carry out DNA replication and to produce HBsAg and HBeAg.
Test Materials and Method: • a. cell line: 2.2.15 cells; • b. treatment of samples: A sample was dissolved in DMSO in a suitable concentration right before use. The resulting solution was diluted in triple folds with culture media. There are eight dilutions. • c. positive control: Lamivudine (3TC) produced by Glaxo Wellcome; • d. reagents: radioimmunological kits of e antigen and s antigen of hepatitis B virus, α^32PdCTP; • e. test method: 2.2.15 cells were seeded in a 96-well microplate. After 36 hours, samples and positive controls in the above dilutions were added into the wells. Cell control wells were simultaneously set up. Culture media were replaced with fresh culture media containing samples in different dilutions, respectively, after 96 hours of addition of samples and positive controls. At the eighth day of addition of samples and positive controls, cell supernatants and 2.2.15 cells were harvested, respectively. Secretory volumes of HBsAg and HBeAg in the cell supernatants were assayed with the RIA method. The degree of HBV DNA replication in the cells was assayed with dot blot method. IC50 and SI were calculated, respectively.

The test system of another data set is HBeAg. The settings on record: 2.2.15 cells, day 8, RIA.
Where [1] appears, read: 50.0 mg/kg, 3rd Day of Withdrawal.
[2] abbreviates: 12.5 mg/kg, 3rd Day of Withdrawal.
Setting [3] is: 25.0 mg/kg, 3rd Day of Withdrawal.

Experimental for HBeAg: Test Principle: • 2.2.15 cells were used as a vector of hepatitis B virus. Samples were assayed for their abilities to inhibit NBV to carry out DNA replication and to produce HBsAg and HBeAg.
Test Materials and Method: • a. cell line: 2.2.15 cells; • b. treatment of samples: A sample was dissolved in DMSO in a suitable concentration right before use. The resulting solution was diluted in triple folds with culture media. […] After 36 hours, samples and positive controls in the above dilutions were added into the wells. Cell control wells were simultaneously set up. Culture media were replaced with fresh culture media containing samples in different dilutions, respectively, after 96 hours of addition of samples and positive controls. At the eighth day of addition of samples and positive controls, cell supernatants and 2.2.15 cells were harvested, respectively. Secretory volumes of HBsAg and HBeAg in the cell supernatants were assayed with the RIA method. The degree of HBV DNA replication in the cells was assayed with dot blot method. IC50 and SI were calculated, respectively.

The compound `Nc1ccn([C@@H]2CS[C@H](CO)O2)c(=O)n1` [Example 3TC, Lamivudine, reference compound] gave a TC50 in the data set with 2.2.15 cells of 786.00 µg/mL (≈ 3430 µM). Besides, in the data set with HBV DNA replication, the IC50 (as a rule, the concentration that inhibits the measured activity by half) amounted to 18.9 µg/mL (≈ 82.4 µM). The “Inhibition Ratio” value was 0.3 with DHBV-DNA (setting [1]); 53.71^d in the data set with DHBV-DNA (50.0 mg/kg, 5th Day of Test); 57.22^d with DHBV-DNA (50.0 mg/kg, 10th Day of Test). In addition, the “OD Value” with DHBV-DNA (setting [1]) is 1.54; in the data set with DHBV-DNA (50.0 mg/kg, 5th Day of Test) it was 0.73^b; in the data set with DHBV-DNA (50.0 mg/kg, 10th Day of Test), 0.68^b.

In the case of `CCC(=O)Nc1ccc(C(=O)N[C@@H](Cc2ccccc2)C(=O)N[C@@H](Cc2ccccc2)C(=O)OC)cc1` [Example 37, methyl N-[N-(4-propionamido-benzoyl)-L-phenylalanyl]-L-phenylalaninate] ({Propionyl-4Abz}-Phe-Phe-OMe), the melting point (usually the temperature, or range, at which the solid turns liquid) lay within 225 to 227 °C. This compound showed a TC50 in the data set with 2.2.15 cells of 129.34 µg/mL (≈ 258 µM). The midpoint of inhibition with HBV DNA replication, the IC50, lay at 1.43 µg/mL (≈ 2.85 µM).

Compound `CCC(=O)Nc1ccc(C(=O)N[C@@H](Cc2ccccc2)C(=O)N[C@@H](Cc2ccc([N+](=O)[O-])cc2)C(=O)OC)cc1` [Example 38, methyl N-[N-(4-propionamido-benzoyl)-L-phenylalanyl]-4-nitro-L-phenylalaninate] ({Propionyl-4Abz}-Phe-[Phe(4-NO2)]-OMe) returned a melting point of 221 to 223 °C. The TC50 in the data set on 2.2.15 cells came out at 80.13 µg/mL (≈ 147 µM). In addition, in the data set with HBV DNA replication, the 50% inhibitory concentration (IC50) stood at 2.39 µg/mL (≈ 4.37 µM).

Turning to `CC(=O)Nc1ccc(C(=O)N[C@@H](Cc2ccccc2)C(=O)N[C@H](CO)Cc2ccccc2)cc1` [Example 39, N-[N-(4-acetamido-benzoyl)-L-phenylalanyl]-L-phenylalaninol], the melting point lay within 193 to 195 °C. In addition, the TC50 in the data set with 2.2.15 cells is 14.37 µg/mL (≈ 31.3 µM). Besides, the IC50 in the data set with HBV DNA replication turned out to be 0.34 µg/mL (≈ 0.74 µM).

On to `O=C(N[C@@H](Cc1ccccc1)C(=O)N[C@H](CO)Cc1ccccc1)c1ccc(CN2CCCC2)cc1` [Example 50, N-{N-[4-(1-pyrrolidyl)methyl-benzoyl]-L-phenylalanyl}-L-phenylalaninol], for which the melting point lay in the range of 164 to 165 °C. In addition, the TC50 in the data set on 2.2.15 cells was 64.15 µg/mL (≈ 132 µM). For the same compound, half-maximal inhibition in the data set on HBV DNA replication (IC50) was put at 7.04 µg/mL (≈ 14.5 µM).

The compound `O=C(N[C@@H](Cc1ccccc1)C(=O)N[C@H](CO)Cc1ccccc1)c1ccc(CN2CCOCC2)cc1` [Example 51, N-{N-[4-(4-morpholinyl)methyl-benzoyl]-L-phenylalanyl}-L-phenylalaninol] yielded a melting point of 183 to 184.5 °C. In the data set with 2.2.15 cells, this compound gave a TC50 of 78.52 µg/mL (≈ 157 µM). In the data set on HBV DNA replication, this compound showed an IC50 of 6.98 µg/mL (≈ 13.9 µM).

In turn, `CCOC(=O)c1ccc(C(=O)N[C@@H](Cc2ccccc2)C(=O)N[C@H](CO)Cc2ccccc2)cc1` [Example 52, N-[N-(4-ethoxycarbonyl-benzoyl)-L-phenylalanyl]-L-phenylalaninol] showed a melting point of 188 to 189.5 °C. Further, the TC50 in the data set on 2.2.15 cells is 89.23 µg/mL (≈ 188 µM). Moreover, in the data set with HBV DNA replication, 24.2 µg/mL (≈ 51 µM) corresponded to half-maximal inhibition (IC50).

The compound `COC(=O)[C@H](Cc1ccccc1)NC(=O)[C@H](Cc1ccccc1)N(C(C)=O)C(=O)c1ccccc1` [Example 57, methyl N-(N-benzoyl-acetyl-L-phenylalanyl)-L-phenylalaninate] registered a melting point of 221 to 222 °C. Besides, in the data set with 2.2.15 cells, the TC50 is 451.20 µg/mL (≈ 955 µM). This compound also showed an IC50 with HBV DNA replication of 59.5 µg/mL (≈ 126 µM).

`COC(=O)[C@H](Cc1ccc(OC(C)=O)cc1)NC(=O)[C@H](Cc1ccc(NC(C)=O)cc1)NC(=O)c1ccc(C)cc1` [Example 68, methyl N-[N-(4-methyl-benzoyl)-4-acetamido-L-phenylalanyl]-O-acetyl-L-tyrosinate] returned a melting point of 222 to 223 °C. Moreover, the TC50 in the data set with 2.2.15 cells was found to be 388.03 µg/mL (≈ 693 µM). Also, the midpoint of inhibition in the data set on HBV DNA replication, the IC50, lay at 13.1 µg/mL (≈ 23.4 µM).

For `CCCCOc1ccc(C[C@H](NC(=O)[C@H](Cc2ccccc2)NC(=O)c2ccccc2)C(=O)OC)cc1` [Example 72, methyl N-(N-benzoyl-L-phenylalanyl)-O-n-butyl-L-tyrosinate], the melting point lay in the range of 177 to 178 °C. This compound also had a TC50 in the data set with 2.2.15 cells of 577.35 µg/mL (≈ 1150 µM). Besides, in the data set with HBV DNA replication, the IC50 was 87.5 µg/mL (≈ 174 µM).

`CCCCOc1ccc(C[C@H](NC(=O)[C@H](Cc2ccccc2)NC(=O)c2ccccc2)C(=O)[O-])cc1.[Na+]` [Example 74, N-(N-benzoyl-L-phenylalanyl)-O-n-butyl-L-tyrosine sodium salt]: the TC50 with 2.2.15 cells was more than 500 µg/mL. For the same compound, the IC50 amounted to 25.2 µg/mL in the data set on HBsAg (2.2.15 cells, day 8, RIA) and 33 µg/mL with HBV DNA replication.

In the case of `CN(C)CCOc1ccc(C[C@H](NC(=O)c2ccccc2)C(=O)N[C@H](CO)Cc2ccccc2)cc1.Cl` [Example 75, N-[N-berizoyl-O-(2-dimethylamino-ethyl)-L-tyrosyl]-L-phenylalaninol hydrochloride], the TC50 in the data set with 2.2.15 cells worked out at 388.03 µg/mL. Moreover, in the data set with HBsAg (2.2.15 cells, day 8, RIA), the “Inhibition of HBsAg IC50” value is 33.51 µg/mL. For the same compound, in the data set on HBV DNA replication, the “Inhibition of DNA Replication IC50” value was 2.41 µg/mL. Further, the “Inhibition Ratio” value is 9.23 in the data set on DHBV-DNA (setting [2]); 12.87 in the data set on DHBV-DNA (12.5 mg/kg, 5th Day of Test); 12.92^a in the data set with DHBV-DNA (12.5 mg/kg, 10th Day of Test); 38.12^d in the data set on DHBV-DNA (setting [3]); 18.67^c with DHBV-DNA (25.0 mg/kg, 5th Day of Test); 32.91^d with DHBV-DNA (25.0 mg/kg, 10th Day of Test). Further, the “Inhibition Ratio” value in the data set on DHBV-DNA (setting [1]) is given as 42.30^d; with DHBV-DNA (50.0 mg/kg, 5th Day of Test), 36.43^c; with DHBV-DNA (50.0 mg/kg, 10th Day of Test), 54.62^d. For the same compound, the “OD Value” in the data set on DHBV-DNA (setting [2]) is given as 1.09; with DHBV-DNA (12.5 mg/kg, 5th Day of Test), 1.11; in the data set on DHBV-DNA (12.5 mg/kg, 10th Day of Test), 1.11^a; in the data set on DHBV-DNA (setting [3]) it was 0.87^b; in the data set on DHBV-DNA (25.0 mg/kg, 5th Day of Test), 1.15^a; in the data set with DHBV-DNA (25.0 mg/kg, 10th Day of Test) it was 0.95^b. Further, the “OD Value” is reported as 0.83^b with DHBV-DNA (setting [1]); 0.94^a with DHBV-DNA (50.0 mg/kg, 5th Day of Test); 0.73^b in the data set on DHBV-DNA (50.0 mg/kg, 10th Day of Test). Besides, the “Inhibition of HBeAg IC50” value with HBeAg was 13.51 µg/mL.

The compound `O=C(N[C@@H](Cc1ccc(OCO)cc1)C(=O)N[C@H](CO)Cc1ccccc1)c1ccccc1.[Na]` [Example 80, N-[N-benzoyl-O-hydroxymethyl-L-tyrosyl]-L-phenylalaninol sodium salt] had a TC50 with 2.2.15 cells of 388.03 µg/mL. For the same compound, the figures for the IC50 with HBsAg and with HBV DNA replication were 150 µg/mL and 27.3 µg/mL, respectively.

For the compound `CC(=O)Nc1ccc(C[C@H](NC(=O)c2ccccc2)C(=O)N[C@@H](Cc2ccccc2)C(=O)O)cc1` [Example 87, N-(N-benzoyl-4-acetamido-L-phenylalanyl)-L-phenylalanine] (Bz-[Phe(4-NH2)](Ac)-Phe-OH), the melting point was 233.5 to 235.5 °C. Besides, in the data set with 2.2.15 cells, the TC50 amounted to 43.11 µg/mL (≈ 91 µM). The same compound showed an IC50 in the data set with HBV DNA replication of 1.81 µg/mL (≈ 3.82 µM).
